Source: patent US11261201B2 (priority 2018, dated 2022)
Values after ≈ are worked out from the molar mass of the structure shown. Structures can show the parent of a compound that is named as a salt. Where two headings read alike, the source gives them in different places.

What was measured:
[1] = tested on: H37RvMA; assay: Tuberculosis Alamar Blue/Resazurin assay (MIC); format: cell-based; details: read-out: WT H37Rv MTB Activity
[2] = tested on: E. coli; assay: Gram negative MIC protocol (OD600, LB, 24 h); details: Escherichia coli
Experimental: (§1) Overnight bacterial cultures were grown in LB with no added antibiotics at 37° C. with shaking. A 1:1000 dilution of these cultures into LB was exposed to concentration gradients of compounds in 96-well plates (100 μL per well assay volume). Resulting plates were incubated at 37° C. for 24 h without shaking, and OD600 was measured at the end of the incubation. MICs were determined as the lowest concentrations at which OD600 remained at baseline.

[3] = tested on: A. baumannii; assay: Gram negative MIC protocol (OD600, LB, 24 h); details: Acinetobacter baumannii
Experimental: as §1

[4] = Mycobacterium tuberculosis, H37RV, WT H37Rv MTB
[5] = read-out: MIC E. coli delta-TolC LB Media, E. coli delta-TolC, LB media, OD600
[6] = read-out: MIC WT E. coli LB Media, WT E. coli, LB media, OD600
[7] = read-out: MIC A. baumannii LB Media, A. baumannii, LB media, 24 h, OD600
[8] = read-out: MIC E. coli delta-TolC LB Media, E. coli delta-TolC strain, LB media, 24 h, OD600
[9] = read-out: MIC WT E. coli LB Media, wild-type E. coli, LB media, 24 h, OD600

Structure (SMILES) | MIC [1, 4] [µM] | MIC [2, 5] [µM] | MIC [2, 6] [µM] | MIC [3, 7] [µM] | MIC [2, 8] [µM] | MIC [2, 9] [µM] | MIC ([1]; WT H37Rv MTB) [µM] | MIC ([1]; Mycobacterium tuberculosis, H37RV) [µM] | MIC ([3]; read-out: MIC A. baumannii LB Media) [µM]
C1=C(CC2CCCN2Cc2ccccc2)CCCC1 (stereo not shown) [B161] | > 150 | > 300 | > 300 | > 150 | – | – | – | – | –
CC(CC1CCCCC1)NCc1ccccc1OCc1ncccn1 (stereo not shown) [B310] | > 150 | – | – | > 150 | 55 (≈ 18.7 µg/mL) | > 150 | – | – | –
CC1CCC(NCc2ccccc2)CC1 (stereo not shown) [B142] | > 150 | > 150 | > 150 | > 150 | – | – | – | – | –
CC(CC1CCCCC1)NCc1ccccc1OC1CCCCC1C (stereo not shown) [B389, 1-cyclohexyl-N-(2-((2-methylcyclohexyl)oxy)benzyl)propan-2-amine] | 33.4 (≈ 11.5 µg/mL) | – | – | 91 (≈ 31.3 µg/mL) | 3 (≈ 1.03 µg/mL) | > 150 | – | – | –
OC[C@@H](Cc1ccccc1)NCc1ccccc1 [B173] | > 150 | > 300 | > 300 | > 300 | – | – | – | – | –
CC(CC1CCCCC1)NCc1ccccc1CCCO (stereo not shown) [B378, 3-(2-((1-cyclohexylpropan-2-ylamino)methyl)phenyl)propan-1-ol] | 150 (≈ 43.4 µg/mL) | – | – | 150 (≈ 43.4 µg/mL) | 7 (≈ 2.03 µg/mL) | 91 (≈ 26.3 µg/mL) | – | – | –
CC(CC1CCCCC1)NCc1ccccc1CS(=O)(=O)NCC1CCCO1 (stereo not shown) [B433, 1-(2-(((1-cyclohexylpropan-2-yl)amino)methyl)phenyl)-N-((tetrahydrofuran-2-yl)methyl)methanesulfonamide] | > 150 | 3 (≈ 1.23 µg/mL) | 150 (≈ 61.3 µg/mL) | 150 (≈ 61.3 µg/mL) | – | – | – | – | –
CC(CC1CCCCC1)NCc1ccccc1OCc1ccccc1C(C)C (stereo not shown) [B458, 1-cyclohexyl-N-(2-((2-isopropylbenzyl)oxy)benzyl)propan-2-amine] | 10 (≈ 3.8 µg/mL) | 4 (≈ 1.52 µg/mL) | > 150 | 20 (≈ 7.59 µg/mL) | – | – | – | – | –
CC(CNCc1ccccc1)C1CCCC1 (stereo not shown) [B5] | > 150 | > 150 | > 150 | > 150 | – | – | – | – | –
c1ccc(CNCC2C3CC4CC(C3)CC2C4)cc1 (stereo not shown) [B59] | 33 (≈ 8.43 µg/mL) | > 150 | > 150 | > 150 | – | – | – | – | –
CNS(=O)(=O)Cc1ccccc1CNC(C)CC1CCCCC1 (stereo not shown) [B445, 1-(2-(((1-cyclohexylpropan-2-yl)amino)methyl)phenyl)-N-methylmethanesulfonamide] | > 150 | 4 (≈ 1.35 µg/mL) | 55 (≈ 18.6 µg/mL) | 150 (≈ 50.8 µg/mL) | – | – | – | – | –
CC(CC1CCCCC1)NCc1ccccc1OC(F)F (stereo not shown) [B291] | > 150 | – | – | > 150 | 12 (≈ 3.57 µg/mL) | 91 (≈ 27.1 µg/mL) | – | – | –
OB1OCc2cccc(CNCCC3CCCCC3)c21 [B339] | > 150 | – | – | > 300 | 200 (≈ 54.6 µg/mL) | > 300 | – | – | –
Cc1noc(C)c1COc1ccccc1CNC(C)CC1CCCCC1 (stereo not shown) [B306] | > 150 | – | – | > 150 | 12 (≈ 4.28 µg/mL) | > 150 | – | – | –
O=C(O)C(CC1CCCCC1)NCc1ccccc1 (stereo not shown) [B204, 2-(benzylamino)-3-cyclohexylpropanoic acid] | – | – | – | > 300 | > 300 | > 300 | >150 | – | –
c1ccc(-c2cccc3ccccc23)c(CNCCC2CCCCC2)c1 [B238, 2-cyclohexyl-N-(2-(naphthalen-1-yl)benzyl)ethanamine hydrochloride] | 55 | – | – | 54 | 10 | > 300 | – | – | –
CC(CC1CCCCC1)NCc1ccccc1OCC1CC1 (stereo not shown) [B287] | 150 (≈ 45.2 µg/mL) | – | – | 91 (≈ 27.4 µg/mL) | 3 (≈ 0.904 µg/mL) | 150 (≈ 45.2 µg/mL) | – | – | –
CC(C)(C)OC(=O)N(Cc1ccccc1)C(C=O)CC1CCCCC1 (stereo not shown) [B210, tert-butyl benzyl(1-cyclohexyl-3-oxopropan-2-yl)carbamate] | > 150 | – | – | > 300 | > 300 | > 300 | – | – | –
c1ccc(CNCCc2ccc3cn[nH]c3c2)cc1 [B58] | > 150 | > 150 | > 150 | > 150 | – | – | – | – | –
CC(CC1CCCCC1)NCc1ccccc1CC(N)C(=O)O (stereo not shown) [B466, 2-amino-3-(2-(((1-cyclohexylpropan-2-yl)amino)methyl)phenyl)propanoic acid] | > 55 | > 150 | > 150 | > 150 | – | – | – | – | –
Cc1cccc(COc2ccccc2CNC(C)CC2CCCCC2)c1 (stereo not shown) [B461, 1-cyclohexyl-N-(2-((3-methylbenzyl)oxy)benzyl)propan-2-amine] | 10 (≈ 3.52 µg/mL) | < 1 | 33 (≈ 11.6 µg/mL) | 33 (≈ 11.6 µg/mL) | – | – | – | – | –
CC(CC1CCCCC1)NCc1ccccc1CS(=O)(=O)NCC(O)CO (stereo not shown) [B431, 1-(2-(((1-cyclohexylpropan-2-yl)amino)methyl)phenyl)-N-(2,3-dihydroxypropyl) methanesulfonamide] | > 150 | 4 (≈ 1.59 µg/mL) | 150 (≈ 59.8 µg/mL) | > 150 | – | – | – | – | –
CC(CC1CCCCC1)NCc1ccccc1OCCOC(C)(C)C (stereo not shown) [B307] | 150 (≈ 52.1 µg/mL) | – | – | > 150 | 20 (≈ 6.95 µg/mL) | > 150 | – | – | –
CC(CC1CCCCC1)NCc1ccccc1OCc1ncnn1C (stereo not shown) [B248] | > 150 | – | – | > 150 | 20 (≈ 6.85 µg/mL) | > 150 | – | – | –
c1ccc(OCC2CCOCC2)c(CNCCC2CCCCC2)c1 [B331, 2-cyclohexyl-N-(2-((tetrahydro-2H-pyran-4-yl)methoxy)benzyl)ethanamine] | > 150 | – | – | > 150 | 33 (≈ 10.9 µg/mL) | > 150 | – | – | –

Structure (SMILES) | MIC [1, 4] [µM] | MIC [2, 5] [µM] | MIC [2, 6] [µM] | MIC [3, 7] [µM] | MIC [2, 8] [µM] | MIC [2, 9] [µM] | MIC ([1]; WT H37Rv MTB) [µM] | MIC ([1]; Mycobacterium tuberculosis, H37RV) [µM] | MIC ([3]; read-out: MIC A. baumannii LB Media) [µM]
CC(CC1CCCCC1)NCc1ccccc1OCC(N)=O (stereo not shown) [B338] | > 150 | – | – | > 150 | 12 (≈ 3.65 µg/mL) | 91 (≈ 27.7 µg/mL) | – | – | –
CC(CC1CCCCC1)NCc1ccccc1OCCN1CCOCC1 (stereo not shown) [B250] | > 150 | – | – | > 150 | 12 (≈ 4.33 µg/mL) | > 150 | – | – | –
OC(CNCc1ccccc1)c1cccc2ccccc12 (stereo not shown) [B193] | 150 (≈ 41.6 µg/mL) | 300 (≈ 83.2 µg/mL) | > 300 | 300 (≈ 83.2 µg/mL) | – | – | – | – | –
c1ccc(CNCCc2ccc3ccccc3n2)cc1 [B155] | > 150 | > 150 | > 150 | > 150 | – | – | – | – | –
CS(=O)(=O)Cc1ccccc1CNCCC1CCCCC1 [B346] | > 150 | – | – | 12 (≈ 3.71 µg/mL) | 4 (≈ 1.24 µg/mL) | > 150 | – | – | –
C[C@H](NCc1ccccc1)[C@@H]1C[C@H]1c1ccccc1 [B86] | > 150 | > 150 | > 150 | > 150 | – | – | – | – | –
CC1(C)CCC2(CC2CNCc2ccccc2)c2ccccc21 (stereo not shown) [B109] | 55 (≈ 16.8 µg/mL) | 91 (≈ 27.8 µg/mL) | > 150 | 150 (≈ 45.8 µg/mL) | – | – | – | – | –
CC(NCCC1=CCCCC1)c1ccccc1 (stereo not shown) [B36] | > 150 | > 150 | > 150 | > 150 | – | – | – | – | –
CC(CC1CCCCC1)NCc1ccccc1CS(=O)(=O)NC1CCN(C)CC1 (stereo not shown) [B432, 1-(2-(((1-cyclohexylpropan-2-yl)amino)methyl)phenyl)-N-(1-methylpiperidin-4-yl)methanesulfonamide] | > 150 | 33 (≈ 13.9 µg/mL) | 150 (≈ 63.2 µg/mL) | > 150 | – | – | – | – | –
CC(CC1CCCCC1)NCc1ccccc1OCCC(N)=O (stereo not shown) [B285] | > 150 | – | – | > 150 | 55 (≈ 17.5 µg/mL) | 91 (≈ 29 µg/mL) | – | – | –
COc1cccc(CNCCC2=CCCCC2)c1 [B143] | > 150 | > 150 | > 150 | > 150 | – | – | – | – | –
CC(CC1CCCCC1)NCc1ccccc1OCc1ccccc1Oc1ccccc1 (stereo not shown) [B463, 1-cyclohexyl-N-(2-((2-phenoxybenzyl)oxy)benzyl)propan-2-amine] | 17 (≈ 7.3 µg/mL) | 4 (≈ 1.72 µg/mL) | > 150 | > 150 | – | – | – | – | –
CC(CC1CCCCC1)NCc1ccccc1OCc1ccccn1 (stereo not shown) [B295] | 150 (≈ 50.8 µg/mL) | – | – | > 150 | 4 (≈ 1.35 µg/mL) | > 150 | – | – | –
CCCCCCCCNCc1ccccc1 [B150] | > 150 | > 150 | > 150 | > 150 | – | – | – | – | –
c1ccc(CNCCc2ccc3c(c2)CCO3)cc1 [B24] | – | > 150 | > 150 | – | – | – | – | > 150 | > 150
CC(C)CCNCc1ccccc1 [B2] | > 150 | > 150 | > 150 | > 150 | – | – | – | – | –
FC(F)(F)C(CC1CCCCC1)NCc1ccccc1 (stereo not shown) [B177] | > 150 | > 300 | > 300 | > 300 | – | – | – | – | –
c1ccc(CNC(CC2CCCCC2)C2CC2)cc1 (stereo not shown) [B167, N-benzyl-2-cyclohexyl-1-cyclopropylethanamine] | > 150 | > 300 | > 300 | > 300 | – | – | – | – | –
c1ccc(CNC2CCc3cccc4cccc2c34)cc1 (stereo not shown) [B195] | > 150 | 300 (≈ 82 µg/mL) | > 300 | > 300 | – | – | – | – | –
CCN(CC)CCOc1ccccc1CNC(C)CC1CCCCC1 (stereo not shown) [B249] | > 150 | – | – | > 150 | > 150 | > 150 | – | – | –
COc1ccc2c(c1)[C@@H](NCc1ccccc1)CC2 [B209, (S)-N-benzyl-6-methoxy-2,3-dihydro-1H-inden-1-amine hydrochloride] | > 150 | – | – | > 300 | > 300 | > 300 | – | – | –
CC(NCc1ccccc1)C12CCC(CC1)CC2 (stereo not shown) [B87] | > 150 | > 150 | 300 (≈ 73 µg/mL) | > 150 | – | – | – | – | –
Cc1cc(COc2ccccc2CNC(C)CC2CCCCC2)on1 (stereo not shown) [B241] | > 150 | – | – | > 150 | 4 (≈ 1.37 µg/mL) | 150 (≈ 51.4 µg/mL) | – | – | –
CCNS(=O)(=O)Cc1ccccc1CNC(C)CC1CCCCC1 (stereo not shown) [B446, 1-(2-(((1-cyclohexylpropan-2-yl)amino)methyl)phenyl)-N-ethylmethanesulfonamide] | > 150 | 7 (≈ 2.47 µg/mL) | 91 (≈ 32.1 µg/mL) | > 150 | – | – | – | – | –
